# Data from patent publication EP3177293B1, “METHOD OF TREATING SKIN CONDITIONS” (Astrazeneca AB, priority 2014, dated 2015).
# Like-named read-outs stand apart in the source and are kept apart here.
# Tests used:
# human DGAT2 = target: T1, human DGAT2 (Homo sapiens, UniProt Q96PD7); test: DGAT2 activity; assay type: biochemical
# T1 sequence (Q96PD7 1-388): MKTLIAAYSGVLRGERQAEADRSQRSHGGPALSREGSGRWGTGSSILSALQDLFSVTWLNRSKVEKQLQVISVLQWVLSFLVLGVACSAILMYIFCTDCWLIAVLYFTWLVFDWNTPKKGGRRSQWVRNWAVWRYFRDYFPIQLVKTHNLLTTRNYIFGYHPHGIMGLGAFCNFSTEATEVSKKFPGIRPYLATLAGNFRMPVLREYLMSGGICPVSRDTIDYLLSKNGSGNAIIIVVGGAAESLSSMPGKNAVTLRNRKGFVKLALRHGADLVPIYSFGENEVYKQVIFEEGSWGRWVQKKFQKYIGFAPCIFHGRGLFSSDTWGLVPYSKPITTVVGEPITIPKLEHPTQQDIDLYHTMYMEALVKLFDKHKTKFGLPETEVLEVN
# sebaceous glands [1] = test system: sebaceous glands
# From the text: Up to 32 (16 male and 16 female) mice (Crl:CD-1(ICR)) per dose group were obtained from the AstraZeneca breeding unit (Alderley Park, Macclesfield, UK). The animals, aged 7-8 weeks, were allowed to acclimatise for at least one week, were multiple-housed, sexes separately, up to 5/cage. Water from the site drinking water supply and RM1 (E) SQC pelleted diet supplied by Special Diets Services Ltd., England, was freely available. Nesting material (Tapvei Aspen Chips, Tapvei small aspen bricks, Finland, sizzle nests and paper shavings, and polycarbonate tunnels, Datesand,UK) was provided. Animals were terminated for scheduled necropsy on the day after the final dose. The mice were killed by administration of halothane.
# (§1) For pharmacokinetic analysis, blood samples were collected into lithium heparin tubes from animals on either the first or penultimate day of the study. Plasma was separated by centrifugation at 4°C and stored for analysis at -20°C. […] Exposure data are presented as FDM (free drug concentration in blood plasma required to inhibit the microsomal DGAT1 enzyme by 50%) and are mean data for each dose level. […] At the end of each experiment, animals were terminally anaesthetised and representative samples of skin (mammary gland region for mice, abdominal region for dogs) were taken at necropsy, placed in 10% buffered formalin and processed for histopathological assessment. Conventional processing into wax and haematoxylin and eosin staining of sections preceded their light microscopic examination.
# (§2) Light microscopic examination and histology scoring was performed by a certified pathologist and findings were peer reviewed by a second pathologist. Each section of skin contained from 15 - 25 hair follicles in different stages of differentiation with associated sebaceous glands that were cut in multiple planes. […] Therefore, assessment of sebaceous cell/gland atrophy was based on their appearances irrespective of the stage of differentiation of the associated hair follicle in all instances.
# skin = conditions: clinical trials of short duration (Denison et al. 2013); cited from earlier work
# [2] = toxicokinetic analysis of plasma exposure in mice, oral dosing; assay type: in vivo, mice (Crl:CD-1(ICR)); conditions: for Cmax as multiple of mouse microsomal DGAT1 enzyme IC50 / Cmin as multiple of DGAT1 IC50: oral once daily
# From the text: (§3) Doses and frequency of dosing were selected following consideration of species specific tolerability and pharmacokinetic parameters. Doses predicted to result in exposures which were likely to cause maximum DGAT1 inhibition without resulting in intolerability were chosen as the highest dose level.
# The mice were killed by administration of halothane.
# [3] = toxicokinetic analysis of plasma exposure in dogs, oral dosing; assay type: in vivo, beagle dogs
# From the text: as §3
# human ACAT2 = target: T2, human ACAT2 (Homo sapiens, UniProt O75908); test: ACAT2 enzyme inhibition; assay type: biochemical
# T2 sequence (O75908 1-522): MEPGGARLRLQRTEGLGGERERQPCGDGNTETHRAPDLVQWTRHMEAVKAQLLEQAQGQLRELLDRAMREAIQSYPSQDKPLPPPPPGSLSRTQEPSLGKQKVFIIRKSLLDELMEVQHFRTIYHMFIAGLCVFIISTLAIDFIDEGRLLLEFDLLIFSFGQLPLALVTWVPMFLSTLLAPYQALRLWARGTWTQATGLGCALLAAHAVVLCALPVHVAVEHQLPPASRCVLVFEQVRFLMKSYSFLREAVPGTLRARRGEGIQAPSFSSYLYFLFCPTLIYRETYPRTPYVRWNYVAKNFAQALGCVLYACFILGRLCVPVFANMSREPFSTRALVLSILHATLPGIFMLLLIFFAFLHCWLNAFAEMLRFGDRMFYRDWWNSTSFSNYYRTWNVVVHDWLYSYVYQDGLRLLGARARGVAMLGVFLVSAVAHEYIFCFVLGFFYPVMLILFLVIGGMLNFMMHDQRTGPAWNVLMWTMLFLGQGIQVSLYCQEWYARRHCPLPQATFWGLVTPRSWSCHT
# dog DGAT1 = target: T3, dog DGAT1 (Canis lupus familiaris, UniProt A0A8I3NFS1); test: in vitro recombinant DGAT1 enzyme assay (dog); assay type: biochemical
# T3 sequence (A0A8I3NFS1 67-492): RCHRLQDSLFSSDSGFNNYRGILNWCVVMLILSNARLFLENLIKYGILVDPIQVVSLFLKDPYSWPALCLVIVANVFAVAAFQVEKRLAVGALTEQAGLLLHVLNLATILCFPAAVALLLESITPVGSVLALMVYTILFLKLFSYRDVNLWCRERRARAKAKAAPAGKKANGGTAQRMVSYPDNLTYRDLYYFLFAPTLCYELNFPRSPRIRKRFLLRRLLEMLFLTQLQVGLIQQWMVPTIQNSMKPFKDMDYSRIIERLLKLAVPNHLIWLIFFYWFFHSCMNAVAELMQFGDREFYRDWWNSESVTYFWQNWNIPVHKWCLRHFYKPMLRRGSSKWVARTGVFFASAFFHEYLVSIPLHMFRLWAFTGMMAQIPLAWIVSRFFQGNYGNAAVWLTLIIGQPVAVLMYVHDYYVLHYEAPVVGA
# human DGAT1 = target: T4, human DGAT1 (Homo sapiens, UniProt O75907); test: in vitro recombinant DGAT1 enzyme assay (human); assay type: biochemical
# T4 sequence (O75907 1-488): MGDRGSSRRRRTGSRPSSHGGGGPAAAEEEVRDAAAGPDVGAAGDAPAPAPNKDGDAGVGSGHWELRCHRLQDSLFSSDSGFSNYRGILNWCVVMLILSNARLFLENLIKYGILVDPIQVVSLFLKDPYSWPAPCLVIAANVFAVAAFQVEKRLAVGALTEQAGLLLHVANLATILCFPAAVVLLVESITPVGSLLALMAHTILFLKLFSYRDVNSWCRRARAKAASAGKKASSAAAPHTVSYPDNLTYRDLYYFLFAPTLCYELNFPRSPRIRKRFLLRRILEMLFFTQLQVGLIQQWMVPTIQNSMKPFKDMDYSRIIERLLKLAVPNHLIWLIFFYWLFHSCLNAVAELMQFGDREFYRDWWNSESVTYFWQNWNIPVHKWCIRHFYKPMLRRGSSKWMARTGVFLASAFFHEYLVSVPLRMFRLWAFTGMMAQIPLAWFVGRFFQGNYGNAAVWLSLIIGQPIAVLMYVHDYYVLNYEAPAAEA
# mouse DGAT1 = target: T5, mouse DGAT1 (Mus musculus, UniProt Q9Z2A7); test: in vitro recombinant DGAT1 enzyme assay (mouse); assay type: biochemical
# T5 sequence (Q9Z2A7 1-498): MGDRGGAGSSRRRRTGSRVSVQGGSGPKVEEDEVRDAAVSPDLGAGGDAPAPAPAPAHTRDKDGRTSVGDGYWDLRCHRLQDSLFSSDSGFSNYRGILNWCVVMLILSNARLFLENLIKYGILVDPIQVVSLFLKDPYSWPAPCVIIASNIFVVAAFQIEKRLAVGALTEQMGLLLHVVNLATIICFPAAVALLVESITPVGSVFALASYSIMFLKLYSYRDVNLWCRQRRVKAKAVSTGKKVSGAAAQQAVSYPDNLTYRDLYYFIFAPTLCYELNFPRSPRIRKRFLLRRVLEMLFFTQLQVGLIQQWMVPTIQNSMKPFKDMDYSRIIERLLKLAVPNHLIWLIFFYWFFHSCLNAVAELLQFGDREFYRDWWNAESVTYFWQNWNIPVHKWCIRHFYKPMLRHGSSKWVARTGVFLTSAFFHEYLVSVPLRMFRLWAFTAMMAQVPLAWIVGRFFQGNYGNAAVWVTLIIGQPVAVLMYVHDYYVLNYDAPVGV
# sebaceous glands [4] = test system: sebaceous glands; remark: listed apart in the source
# Protocol: Up to 8 (4 male and 4 female) beagle dogs per treatment group were obtained from the AstraZeneca breeding unit (Alderley Park, Macclesfield, UK). […] All animals were observed daily for clinical signs of toxicity. Body weight and food consumption was measured daily prior to dosing. Animals were single-penned, with access to an exercise area with others of the same sex and group, for the major part of each day. Animals had free access to water from the site drinking water supply. A set weight of SDS Dog-D3 (E) SQC, supplied by Special Diet Services Ltd, England, was provided daily, in the afternoon, access being allowed for up to approximately 2 hours. Toys (e.g., bones) were provided for additional environmental enhancement. Animals were terminated for scheduled necropsy on the day after the final dose. The dogs were killed by intravenous administration of sodium pentobarbitone and then exsanguinated.
# as §1, §2
# [5] = mouse, 1 month and 6 month studies
# [6] = 1mg/kg/day dose group, 180 day study
# [7] = 600 mg/kg/day dose group, 7 day study
compound,measurement,setting,value
"Cc1nc(C)c(-c2ccc([C@H]3CC[C@H](CC(=O)O)CC3)cc2)nc1C(N)=O [2-((1R,4R)-4-(4-(6-carbamoyl-3,5-dimethylpyrazin-2-yl)phenyl)cyclohexyl)acetic acid]",activity against human DGAT2,human DGAT2,No activity
same,exposure at Cmin at which additional skin findings occurred,"sebaceous glands [1]; Crl:CD-1(ICR), mouse, in vivo, 6 months",≥ 7 x FDM
same,skin photomicrograph appearance of sebaceous glands (Figure 5 B),"sebaceous glands [1]; male mouse, 300 mg/kg/day for 6 months",substantial atrophy of sebaceous glands with much reduced sebum and mild hyperkeratosis
same,reversibility of sebaceous gland atrophy,"sebaceous glands [1]; mice, 4 week drug-free period after 1 month of treatment",complete reversibility
same,group mean severity of sebaceous gland atrophy,"sebaceous glands [1]; mice, after 1 month (28 days) of dosing",minimal to mild
same,group mean severity of sebaceous gland atrophy,"sebaceous glands [1]; mice, after 6 months (180 days) of dosing",minimal to moderate
same,sebaceous gland atrophy,"sebaceous glands [1]; mice, high doses for up to 7 days",absent
same,duration of DGAT1 inhibition required for microscopical detection of sebaceous gland atrophy,sebaceous glands [1]; mouse,more than 7 days
same,skin photomicrograph appearance of sebaceous glands (Figure 1 B),"sebaceous glands [1]; mouse, 300 mg/kg/day for 28 days",severely atrophic sebaceous glands with substantially reduced sebum
same,skin photomicrograph appearance of sebaceous glands (Figure 1 C),"sebaceous glands [1]; mouse, 300 mg/kg/day for 28 days followed by drug free recovery period of 28 days",normal appearance of sebum filled sebaceous glands
same,exposure at Cmin with mild to moderate sebaceous gland atrophy,sebaceous glands [1]; [5],46 x FDM
same,exposure at Cmin with minimal to mild sebaceous gland atrophy,sebaceous glands [1]; [5],7 - 40 x FDM
same,exposure at Cmax at which additional skin findings occurred,"sebaceous glands [1]; mouse, in vivo",at least 50 x FDM
same,histopathological findings in the skin,"sebaceous glands [1]; mouse, in vivo",restricted to sebaceous gland atrophy only
same,significant increase in inflammation in the skin,"sebaceous glands [1]; mouse, in vivo",not seen
same,skin findings associated with sebaceous gland atrophy,"sebaceous glands [1]; mouse, in vivo","epidermal hyperplasia, occasional hair follicle atrophy, as well as in-life observation of hair-loss and skin lesions"
same,tolerability,"sebaceous glands [1]; mouse, in vivo",well tolerated
same,effects on the skin of healthy volunteers,skin,no effects
same,Cmax as multiple of mouse microsomal DGAT1 enzyme IC50,[2]; [6],4 x IC50
same,Cmin as multiple of DGAT1 IC50,[2]; [6],1 x IC50
same,Cmax as multiple of mouse microsomal DGAT1 enzyme IC50,[2]; [7],1581 x IC50
same,Cmin as multiple of DGAT1 IC50,[2]; [7],766 x IC50
same,sex difference in exposure,[2]; male versus female mice,1.5 - 3 x
same,Cmax as multiple of dog microsomal DGAT1 enzyme IC50,"[3]; 4 mg/kg/day dose group, 3 month study",10 x IC50
same,Cmin as multiple of DGAT1 IC50,"[3]; 4 mg/kg/day dose group, 3 months study",1 x IC50
same,Cmin as multiple of DGAT1 IC50,"[3]; 1000 mg/kg/day dose group, 7 day study",54 x IC50
same,Cmax as multiple of dog microsomal DGAT1 enzyme IC50,"[3]; 1000 mg/kg/day dose group, 'in the same study' (3 month study as printed)",292 x IC50
same,IC50,human ACAT2,> 35000 nM
same,IC50,dog DGAT1,~60 nM
same,IC50,human DGAT1,~80 nM
same,IC50,mouse DGAT1,~100 nM
same,duration of DGAT1 inhibition required for microscopical detection of sebaceous gland atrophy,sebaceous glands [4]; dog,more than 7 days
same,exposure at Cmin with mild to moderate sebaceous gland atrophy,sebaceous glands [4]; dog,> 36 x FDM
same,exposure at Cmin with minimal to mild sebaceous gland atrophy,sebaceous glands [4]; dog,7-54 x FDM
same,skin photomicrograph appearance of sebaceous glands (Figure 6 B),"sebaceous glands [4]; dog, 100 mg/kg/day for 6 months",atrophic sebaceous glands which contain little sebum
same,"additional skin changes (occasional hair follicle atrophy, hair-loss and skin lesions)","sebaceous glands [4]; dog, in vivo",not observed
same,hyperkeratosis of the epithelium covering the infundibula of hair follicles,"sebaceous glands [4]; dog, in vivo",minimal hyperkeratosis
same,significant increase in inflammation in the skin,"sebaceous glands [4]; dog, in vivo",not seen
same,tolerability,"sebaceous glands [4]; dog, in vivo",well tolerated
same,sebaceous gland atrophy,sebaceous glands [4]; dogs dosed for up to 7 days,absent
same,reversibility of sebaceous gland atrophy,"sebaceous glands [4]; dogs, 4 week drug-free period after 3 months of dosing",complete reversibility
same,group mean severity of sebaceous gland atrophy,"sebaceous glands [4]; dogs, after 3 months (90 days) of dosing",minimal to moderate
same,group mean severity of sebaceous gland atrophy,"sebaceous glands [4]; dogs, after 14 days of dosing",minimal to mild
same,group mean severity of sebaceous gland atrophy,"sebaceous glands [4]; dogs, highest dose group after 6 months (180 days)",moderate
